Key:
[1] = target: T1, wild type PKR (Homo sapiens, UniProt P30613); test: Cell based ATP assay in purified red blood cells (Cell-Titer-Glo); set-up: endogenous in cells; host or cells: purified red blood cells from healthy volunteers; settings: Table 2; RBCs, overnight at 37° C., ATP levels
Procedure: Example 16. Red Blood Cell (RBC) Purification
Fresh blood drawn from healthy volunteers into K2EDTA tubes was collected. Whole blood was pelleted by spinning at 500 g for 10 minutes. Cut transfusion bag port off of Purecell leukocyte reduction neofilter (Fisher NC0267633) one (1) inch above filter. Attach a 10 ml syringe barrel to the remaining cut tubing attached to neofilter. The plasma layer was removed from the pellet of the whole blood and the pellet was resuspended in 2× volume of phosphate buffered saline (PBS). Transfer 9 ml re-suspended blood cell pellet to prepared 10 ml syringe that is attached to the neofilter. Allow whole blood to gravity flow through filter until all fluid runs through upper tubing into filter disc. Add plunger to the syringe, remove syringe from clamp and invert the filter, then plunge air through the syringe filter system. Using a new 5 ml syringe, remove filtered RBCs from the bag by the syringe port and transfer purified RBCs to a 5 ml snap cap tube that has been incubated on ice. Spin 5 ml snap cap tube at 500 g for 10 minutes at 15 C, aspirate supernatant and resuspend in AGAM (1×PBS, 1% glucose, 170 mg/L adenine, 5.25 g/L mannitol) at a density of 4×10^9 cells/mL.
Example 17. Cell Based ATP Assay
For cell based ATP assays, the compound as described herein was prepared in 100% DMSO as a 10 mM stock. Serial dilutions (1:4) were performed in 96-well V-bottom storage plate and then added 1:100 to 96-well V-bottom plates containing AGAM. RBCs were diluted in AGAM media to a density of 1×10^7 cells/mL before added 90 μL/well to black clear bottom assay plates (final compound concentration at 0.1% DMSO concentration). Assay plates were sealed using aluminum foil seals and incubated overnight at 37° C. in a humidified chamber. ATP levels were read out using Cell-Titer-Glo (Promega).

[2] = target: PKR K410E (Homo sapiens, UniProt P30613, K410E); test: PKR mutant assay (K410E), AC50, LDH/NADH-coupled, absorbance at 340 nm; assay type: biochemical; settings: Table 2; enzyme assay
Sequence of PKR K410E (P30613 whole entry K410E): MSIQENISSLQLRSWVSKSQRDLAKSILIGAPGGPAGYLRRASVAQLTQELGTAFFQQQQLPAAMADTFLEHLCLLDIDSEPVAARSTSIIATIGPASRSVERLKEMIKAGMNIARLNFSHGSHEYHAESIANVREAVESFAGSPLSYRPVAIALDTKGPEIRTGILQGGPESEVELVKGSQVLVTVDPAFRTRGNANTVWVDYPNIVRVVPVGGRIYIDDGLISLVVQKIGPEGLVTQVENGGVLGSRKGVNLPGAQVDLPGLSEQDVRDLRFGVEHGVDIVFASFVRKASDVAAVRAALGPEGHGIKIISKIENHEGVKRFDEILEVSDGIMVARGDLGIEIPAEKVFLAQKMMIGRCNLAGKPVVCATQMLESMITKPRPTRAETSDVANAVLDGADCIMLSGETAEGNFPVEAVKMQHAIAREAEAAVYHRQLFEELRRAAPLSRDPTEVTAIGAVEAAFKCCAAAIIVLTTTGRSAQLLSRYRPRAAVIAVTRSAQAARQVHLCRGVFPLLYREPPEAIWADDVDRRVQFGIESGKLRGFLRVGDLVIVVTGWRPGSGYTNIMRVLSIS
Procedure: (§1) Example 11. PKR Mutant Assay
(§2) PKR or PKR mutant enzyme solution was diluted into a reaction mix, which contains 1× buffer (100 mM KCl, 50 mM Tris pH 7.5, 5 mM MgCl2) as well as PEP (conc depends on enzyme), 180 μM NADH, 0.5 units LDH, 1 mM DTT, 0.03% BSA; final assay concentrations after 1.11 fold dilution are indicated.
(§3) 2 μL of test compound was added into wells first, and then 180 μL reaction mix was added.
(§4) Reactions mixture with test compound was assembled except for ADP, and plates were stored for 60 minutes at room temperature.
(§5) 20 uL ADP was added to start reaction at room temperature and reaction progress was measured as changes in absorbance at 340 nm wavelength at room temperature.
(§6) Test Compound Preparation:
(§7) Test compound stock was made at 100× concentration in 100% DMSO (10 mM)
(§8) 1 to 3 dilutions were made for 11 points (i.e. 50 μl of first concentration added to 100 μl 100% DMSO to yield 3.33 mM, 50 μl of this added to 100 μl DMSO to yield 1.11 mM, and so forth) • 1 to 100 dilution into assay (2 μl in 200 μl) yielded starting concentration of 100 μM, decreasing 3 fold for 11 points.
(§9) Assay Buffer: 100 mM KCl, 50 mM Tris 7.5, 5 mM MgCl2, 1 mM DTT, 0.03% BSA
(§10) Reaction Mixture: PKR mutant enzyme: 40-400 ng/well; ADP: 0.2-1.65 mM; PEP: 0.1-0.5 mM; NADH: 180 μM; LDH: 0.5 units (Sigma #59023); DTT: 1 mM; BSA: 0.03%.

[3] = target: PKR R510Q (Homo sapiens, UniProt P30613, R510Q); test: PKR mutant assay (R510Q), AC50, LDH/NADH-coupled, absorbance at 340 nm; assay type: biochemical; settings: Table 2, enzyme assay; for AC50: read-out: PK R510Q AC50
Sequence of PKR R510Q (P30613 whole entry R510Q): as the sequence (P30613 whole entry K410E) above, with E410K, R510Q counted along it
Procedure: as §1, §2, §3, §4, §5, §6, §7, §8, §9, §10

[4] = target: T1, wild type PKR; test: PKR (wild type) enzyme AC50 assay, LDH/NADH-coupled, absorbance at 340 nm; assay type: biochemical; settings: Table 2, enzyme assay; for AC50: read-out: PKR WT AC50
Procedure: as §1, §2, §3, §4, §5, §6, §7, §8, §9, §10

T1 sequence (P30613 whole entry): as the sequence (P30613 whole entry K410E) above, with E410K counted along it

Structure (SMILES) | AC50 [1] | AC50 [2] | AC50 [3] | AC50 [4] | Cell based ATP assay AC50 [1] | PKR WT AC50 [4] | PK R510Q AC50 [3]
COc1cccc(Cn2ncc3c4sc(Cc5ccc(C(F)(F)F)cc5)nc4n(C)c3c2=O)c1 [Compound 41] | ≤ 1000 nM | < 300 nM | < 300 nM | < 300 nM |  |  | 
Cc1nc2c(s1)c1cnn(Cc3c[nH]cn3)c(=O)c1n2C [Compound 42] | > 1000 nM | > 800 nM | > 800 nM | > 800 nM |  |  | 
COC(=O)c1nc2c(s1)c1cnn(Cc3cccc(OC)c3)c(=O)c1n2C [Compound 43] |  | > 800 nM | 301 to 800 nM | > 800 nM | No Fit |  | 
Cc1nc2c(s1)c1cnn(Cc3ccc(CO)cc3)c(=O)c1n2C [Compound 44] | > 1000 nM | > 800 nM | > 800 nM | > 800 nM |  |  | 
Cc1nc2c(s1)c1cnn(Cc3cccc(CO)c3)c(=O)c1n2C [Compound 45] | ≤ 1000 nM | < 300 nM | < 300 nM | < 300 nM |  |  | 
Cc1nc2c(s1)c1cnn(CCCO)c(=O)c1n2C [Compound 46] | > 1000 nM | > 800 nM | > 800 nM | > 800 nM |  |  | 
Cc1nc2c(s1)c1cnn(Cc3cccc([N+](=O)[O-])c3)c(=O)c1n2C [Compound 47] |  | > 800 nM | > 800 nM | > 800 nM | No Fit |  | 
Cc1nc2c(s1)c1cnn(Cc3ccc([N+](=O)[O-])cc3)c(=O)c1n2C [Compound 48] |  | > 800 nM | > 800 nM |  | No Fit | No Fit | 
Cc1nc2c(s1)c1cnn(Cc3ccc(N)cc3)c(=O)c1n2C [Compound 49] | > 1000 nM | > 800 nM | > 800 nM | > 800 nM |  |  | 
COc1cccc(Cn2ncc3c4sc(CC5CCCCC5)nc4n(C)c3c2=O)c1 [Compound 50] |  | > 800 nM | > 800 nM | > 800 nM | No Fit |  | 
COc1cccc(Cn2ncc3c4sc(CO)nc4n(C)c3c2=O)c1 [Compound 51] | ≤ 1000 nM | < 300 nM | < 300 nM | < 300 nM |  |  | 
COc1cccc(Cn2ncc3c4sc(C(C)O)nc4n(C)c3c2=O)c1 (stereo not drawn) [Compound 52] | ≤ 1000 nM | < 300 nM | < 300 nM | < 300 nM |  |  | 
COc1cccc(Cn2ncc3c4sc(C(F)(F)F)nc4n(C)c3c2=O)c1 [Compound 53] | > 1000 nM | < 300 nM | < 300 nM | < 300 nM |  |  | 
Cc1nc2c(s1)c1cnn(CCOCCO)c(=O)c1n2C [Compound 54] |  | > 800 nM |  | > 800 nM | No Fit |  | No Fit
COc1cccc(Cn2ncc3c4sc(C(=O)c5cccc(O)c5)nc4n(C)c3c2=O)c1 [Compound 55] | > 1000 nM | > 800 nM | 301 to 800 nM | 301 to 800 nM |  |  | 
CC(=O)c1cccc(Cn2ncc3c4sc(C)nc4n(C)c3c2=O)c1 [Compound 56] | > 1000 nM | < 300 nM | < 300 nM | 301 to 800 nM |  |  | 
Cc1nc2c(s1)c1cnn(Cc3cccc(C(C)N)c3)c(=O)c1n2C (stereo not drawn) [Compound 57] | ≤ 1000 nM | < 300 nM | < 300 nM | < 300 nM |  |  | 
Cc1nc2c(s1)c1cnn(Cc3cccc(CN)c3)c(=O)c1n2C [Compound 58] | > 1000 nM | < 300 nM | < 300 nM | < 300 nM |  |  | 
COc1cccc(Cn2ncc3c4sc(Cc5ccc(F)cc5)nc4n(C)c3c2=O)c1 [Compound 59] | ≤ 1000 nM | < 300 nM | < 300 nM | < 300 nM |  |  | 
Cc1nc2c(s1)c1cnn(Cc3ccc4cc[nH]c4c3)c(=O)c1n2C [Compound 60] | ≤ 1000 nM | < 300 nM | < 300 nM | < 300 nM |  |  | 
Cc1nc2c(s1)c1cnn(Cc3ccc4[nH]c(=O)[nH]c4c3)c(=O)c1n2C [Compound 61] |  | > 800 nM | > 800 nM | > 800 nM | No Fit |  | 
COc1cccc(Cn2ncc3c4sc(C(C)=O)nc4n(C)c3c2=O)c1 [Compound 62] | ≤ 1000 nM | < 300 nM | < 300 nM | < 300 nM |  |  | 
COc1cccc(Cn2ncc3c4sc(C(C)(C)O)nc4n(C)c3c2=O)c1 [Compound 63] | > 1000 nM | < 300 nM | < 300 nM | < 300 nM |  |  | 
COc1cccc(Cn2ncc3c4sc(Cc5ccc(C#N)cc5)nc4n(C)c3c2=O)c1 [Compound 64] | ≤ 1000 nM | < 300 nM | < 300 nM | < 300 nM |  |  | 
Cc1nc2c(s1)c1cnn(Cc3cccc4cn[nH]c34)c(=O)c1n2C [Compound 65] | > 1000 nM | 301 to 800 nM | 301 to 800 nM | > 800 nM |  |  | 
CCOC(=O)Cn1ncc2c3sc(C)nc3n(C)c2c1=O [Compound 66] |  | > 800 nM |  | > 800 nM | No Fit |  | No Fit
Cc1nc2c(s1)c1cnn(CCO)c(=O)c1n2C [Compound 67] |  | > 800 nM |  | > 800 nM | No Fit |  | No Fit

More lines, now with the values ahead:

AC50 [1] | AC50 [2] | AC50 [3] | AC50 [4] | Cell based ATP assay AC50 [1] | PKR WT AC50 [4] | PK R510Q AC50 [3] | Structure (SMILES)
≤ 1000 nM | < 300 nM | < 300 nM | < 300 nM |  |  |  | Cc1nc2c(s1)c1cnn(Cc3cc[nH]n3)c(=O)c1n2C [Compound 68]
> 1000 nM | > 800 nM | 301 to 800 nM | > 800 nM |  |  |  | CNc1ccc(Cn2ncc3c4sc(C)nc4n(C)c3c2=O)cc1 [Compound 69]
≤ 1000 nM | < 300 nM | < 300 nM | < 300 nM |  |  |  | CNc1cccc(Cn2ncc3c4sc(C)nc4n(C)c3c2=O)c1 [Compound 70]
≤ 1000 nM | 301 to 800 nM | 301 to 800 nM | 301 to 800 nM |  |  |  | Cn1c2nc([S+](C)[O-])sc2c2cnn(Cc3cccc4[nH]ncc34)c(=O)c21 (stereo not drawn) [Compound 71]
> 1000 nM | > 800 nM | > 800 nM | > 800 nM |  |  |  | Cc1nc2c(s1)c1cnn(Cc3cn[nH]c3)c(=O)c1n2C [Compound 72]
> 1000 nM | 301 to 800 nM | 301 to 800 nM | > 800 nM |  |  |  | Cc1nc2c(s1)c1cnn(Cc3ccc4[nH]cnc4c3)c(=O)c1n2C [Compound 73]
≤ 1000 nM | < 300 nM | < 300 nM | < 300 nM |  |  |  | Cc1nc2c(s1)c1cnn(Cc3cccc(N)n3)c(=O)c1n2C [Compound 74]
≤ 1000 nM | > 800 nM |  | > 800 nM |  |  | No Fit | Cn1c2nc([S+](C)[O-])sc2c2cnn(Cc3ccc(C#N)cc3)c(=O)c21 (stereo not drawn) [Compound 75]
≤ 1000 nM | < 300 nM | < 300 nM | > 800 nM |  |  |  | Cc1nc2c(s1)c1cnn(Cc3cccc4c3cnn4C)c(=O)c1n2C [Compound 76]
≤ 1000 nM | < 300 nM | < 300 nM | < 300 nM |  |  |  | Cn1c2nc(Cc3ccc(O)cc3)sc2c2cnn(Cc3cccc4[nH]ncc34)c(=O)c21 [Compound 77]
≤ 1000 nM | > 800 nM | > 800 nM | > 800 nM |  |  |  | Cn1c2nc([S+](C)[O-])sc2c2cnn(Cc3ccnc(N)c3)c(=O)c21 (stereo not drawn) [Compound 78]
≤ 1000 nM | < 300 nM | < 300 nM | < 300 nM |  |  |  | Cn1c2nc([S+](C)[O-])sc2c2cnn(Cc3cccc4c3CCN4)c(=O)c21 (stereo not drawn) [Compound 79]
